Experimental data as given in patent publication US20230140798A1, “SYNTHETIC PEPTIDES DIRECTED AGAINST THE METABOTROPIC GLUTAMATE RECEPTOR 5” (Lactocore, Inc., priority 2020, published 2023).

What was measured:
Assay type in all cases: in vivo
zebrafish (Danio rerio) [1] = assay: Overall behavioral effect in zebrafish (NT and LDB tests)
Method: (§1) The tested substances were injected into the zebrafish intraperitoneally using an insulin syringe (0.5 ml, 30 g) 10 minutes before the test (15 min before for ketamine only, according to the literature data). The saline solution (0.9% NaCl) was used as a solvent. Anesthesia and immobilization of the animals were achieved by placing them in water at a temperature of 10° C. Control group fish received intraperitoneal injections of an equivalent volume of solvent, also after going through a pre-cooling procedure.
(§2) The Novel Tank (NT) test was performed as previously described (Maximino et al. (2013). Behavioral and neurochemical changes in the zebrafish leopard strain. G2B. 12(5): 576-582). A video recording (background shooting) was started 20-30 seconds before the zebrafish were placed in the test aquarium. The experimental zebrafish was placed in the tank using a net. The recording was being conducted for 5 minutes. The test was carried out using EthoVision XT software package (Noldus, Wageningen, Netherlands). The software registered the distance covered by the animal, its speed, the number of visits to the three conventional zones of the aquarium: “bottom,” “center,” and […] (lower, middle, and upper thirds of the aquarium, respectively), the time spent in these zones, and the latency of a visit to the middle and to the surface of the aquarium.
(§3) The light/dark box (LDB) test was performed as previously described (Maximino et al. (2011). Pharmacological analysis of zebrafish (Danio rerio) scototaxis. Prog. Neuro-Psychopharmacol. Biol. Psychiatry. 35(2): 624-631). The zebrafish was placed in a light compartment of an LDB using a net, the camera was switched on simultaneously, and the behavior of the zebrafish was recorded for 5 minutes. The video was processed using RealTimer (OpenScience). During the processing of records, the residence time and the number of visits to the light and dark compartments of the test setup were recorded, as well as the latent period of visiting both compartments.

zebrafish (Danio rerio) [2] = assay: Novel Tank (NT) test
Method: as §1
A base, back, and side walls of the aquarium were made of matte black plastic; the front panel (shorter wall) was made of transparent Plexiglas.
as §2

BALB/C mice [3] = assay: Porsolt Forced Swim test (two-day modification), mice
Method: (§4) After an adaptation period, the test substance was intraperitoneally injected into mice. Behavioral parameters were measured in 30 minutes after injection. No more than one test was performed per day. The tests were administered as follows: day 1—the Open field test, day 8—the Elevated plus maze test, days 15-16—the Porsolt Forced Swim (two-day modification) test.
As part of this modification, two tests were carried out within two days. The installation is a transparent cylinder, 30 cm high, 10 cm in diameter and filled with water (water temperature 21° C.-23° C.) to a mark at a height of 25 cm. On the first day, each animal was dropped into the cylinder for 10 minutes. Behavioral parameters were not recorded. The animals are dropped into the cylinder for ten minutes again on the second day. The duration of active (vigorous movements with all paws) and passive (weak strokes with hind legs) swimming, as well as immobility (immobilization) (Porsolt et al. (1977). Behavioral despair in mice: a primary screening test for antidepressants. Arch Int Pharmacodyn Ther, 229(2), 327-336) are recorded. After each test the mice are placed in a heated cage until dry. The behavior indicators in this test are processed using the Real Timer Program developed by NPK “OpenScience” LLC, Russia. The sequence of events and their duration were recorded as well as basic statistical data processing was conducted.

zebrafish (Danio rerio) [4] = assay: Light/Dark Box (LDB) test
Method: as §1
The setup for the Light/Dark preference test consisted of three main parts: a launch compartment, a light compartment made of white plastic, and a dark compartment made of black plastic. The bright lighting in these tests was provided by a lamp on a stand (LED lamp PL, 11 W, light flux≈600 Lm, about 500 Lx directly above the water surface), which was attached to the upper part of the aquarium.
as §3

BALB/C mice [5] = assay: Open Field test, mice
Source text: Eighty male BALB/C mice were used as subjects in this example. Body weight of each specimen at the beginning of the experiment was between about 18 grams and about 20 grams. All animals were free from species-specific pathogens (specific pathogen free (SPF) status according to the Federation of European Laboratory Animal Science Associations (FELASA) list, 2014). The animals were kept in conditions of free access to water and food. The room was air-conditioned (exchange rate not less than 15 r/h) with a 12 h:12 h light-dark cycle (lights on at 09:00 am), air temperature 20-24°±2° C. (possible fluctuations of the limits no more than 2° C. per day), 30-70% humidity. For the study, the mice were separated into six different groups and the tested substances were administered to the groups as shown in Table 1. Drugs were daily prepared in fresh saline, according to the dosage. For intranasal administration (i.n.), a volume of 20 μl was used, for intraperitoneal (i.p.)—200 μl.
as §4
The test is an arena with a diameter of 63 cm, illuminated by bright light (500 Lx). Recorded parameters: total distance traveled (in cm), time spent moving (at a speed of more than five cm/s), time spent immobile (at a speed of less than 0.2 cm/s), average and maximum velocity, the number of episodes of motor activity and freezing. The same set of parameters, as well as the latent period and the time spent are recorded for the central sector. Defecation, rears (setting the animal on its hind legs) are evaluated visually. The test is designed to assess the level of motor and exploratory activity.

BALB/C mice [6] = assay: Elevated Plus Maze test, mice; details: for behavior in EPM: 1 mg/kg i.p.
Method: as §4
The test consists of two closed and two open arms located opposite each other (arm length 30 cm). The height of the sides of the closed arms is 15 cm. The entire installation is raised 70 cm above the floor. Open arms have a bright uniform illumination of 400 lux, closed −30-40 lux. The animal is placed in the center of the maze, with its head facing an open arm. Within five minutes, the Noldus EthoVision XT program (for behavior tracking) automatically records the following behavior parameters: total distance traveled (in cm), time spent moving (at a speed of more than five cm/s), time spent immobile (at a speed of less than 0.2 cm/s), average and maximum velocity, the number of episodes of mobility, and freezing. The same set of parameters, as well as the latent period and the time spent, are recorded for the central sector, the open and closed arms separately.

[7] = 10 mg/kg i.p., 30 minutes after injection

AGAS: tetrapeptide AGAS, best combinatorial tetrapeptide according to the score values
overall behavioral effect in Danio rerio (zebrafish (Danio rerio) [1]; 1 mg/kg i.p.): did not affect the behavior
overall behavioral effect in Danio rerio (zebrafish (Danio rerio) [1]; 5 mg/kg i.p.): did not affect the behavior
overall behavioral effect in Danio rerio (zebrafish (Danio rerio) [1]; 10 mg/kg i.p.): prominent anxiolytic-like activity
overall behavioral effect in Danio rerio (zebrafish (Danio rerio) [1]; 20 mg/kg i.p.): anxiogenic-like or sedative effect
behavior in NT test (zebrafish (Danio rerio) [2]; 1 mg/kg i.p.): didn't show any prominent effects
behavior in NT test (zebrafish (Danio rerio) [2]; 5 mg/kg i.p.): didn't show any prominent effects
velocity (zebrafish (Danio rerio) [2]; 10 mg/kg i.p.): greater velocity
time spent at the top of the tank (zebrafish (Danio rerio) [2]; 20 mg/kg i.p.): decreased time spent at the top of the aquarium
velocity (zebrafish (Danio rerio) [2]; 20 mg/kg i.p.): trend towards significant reduction of velocity
behavior in FST (BALB/C mice [3]; 10 mg/kg i.p.): did not affect the behavior
behavior in LDB test (zebrafish (Danio rerio) [4]; 1 mg/kg i.p.): didn't show any prominent effects
behavior in LDB test (zebrafish (Danio rerio) [4]; 5 mg/kg i.p.): didn't show any prominent effects
latency to enter the light compartment (zebrafish (Danio rerio) [4]; 10 mg/kg i.p.): decreased latency to enter the light compartment
number of transitions between compartments of LDB (zebrafish (Danio rerio) [4]; 10 mg/kg i.p.): increased number of transitions between compartments
behavior in LDB test (zebrafish (Danio rerio) [4]; 20 mg/kg i.p.): no differences between experimental and control groups
number of center entries (BALB/C mice [5]; [7]): 19.3±3
freezing time (BALB/C mice [6]; 10 mg/kg i.p.): 38.7 ± 9.6 s
number of rears on the closed arms (BALB/C mice [6]; 10 mg/kg i.p.): 10.2±2.9
distance travelled (BALB/C mice [6]; [7]): 973±78.7 cm

AYFE: tetrapeptide chosen as a negative control [reference compound]
overall behavioral effect in Danio rerio (zebrafish (Danio rerio) [1]; 1 mg/kg i.p.): did not show behavioral effects
overall behavioral effect in Danio rerio (zebrafish (Danio rerio) [1]; 10 mg/kg i.p.): produced sedation
behavior in NT test (zebrafish (Danio rerio) [2]; 1 mg/kg i.p.): did not alter the behavior
distance travelled (locomotor activity) (zebrafish (Danio rerio) [2]; 10 mg/kg i.p.): attenuation of locomotor activity
time spent active swimming (BALB/C mice [3]; 1 mg/kg i.p.): increased
time spent immobile (BALB/C mice [3]; 1 mg/kg i.p.): decreased
behavior in LDB test (zebrafish (Danio rerio) [4]; 1 mg/kg i.p.): did not alter the behavior
behavior in LDB test (zebrafish (Danio rerio) [4]; 10 mg/kg i.p.): did not differ from control values
time spent in the center (BALB/C mice [5]; 1 mg/kg i.p., 30 minutes after injection): 59.96±22.4
behavior in EPM (BALB/C mice [6]): didn't affect the behavior

DSGH: combinatorial tetrapeptide with the best occurrence and the LOGO analysis
overall behavioral effect in Danio rerio (zebrafish (Danio rerio) [1]; 0.5 mg/kg i.p.): anxiogenic-like effect
overall behavioral effect in Danio rerio (zebrafish (Danio rerio) [1]; 1 mg/kg i.p.): potent anxiolytic-like effect
overall behavioral effect in Danio rerio (zebrafish (Danio rerio) [1]; 10 mg/kg i.p.): failed to produce any behavioral changes
behavior in NT test (zebrafish (Danio rerio) [2]; 0.5 mg/kg i.p.): did not produced any behavioral effects
behavior in NT test (zebrafish (Danio rerio) [2]; 10 mg/kg i.p.): did not affect the behavioral parameters
behavioral parameters in FST (BALB/C mice [3]; 1 mg/kg i.p.): did not cause any changes of the behavioral parameters
number of transitions to light (zebrafish (Danio rerio) [4]; 0.5 mg/kg i.p.): decreased number of transitions to light
time spent in the light compartment (zebrafish (Danio rerio) [4]; 0.5 mg/kg i.p., trend p<0.1): decreased time spent in the light compartment
time spent in the light compartment (zebrafish (Danio rerio) [4]; 1 mg/kg i.p.): trend towards increased time spent in the light compartment
latency to enter the light (zebrafish (Danio rerio) [4]; 1 mg/kg i.p., trend p<0.10): decreased latency to enter the light
behavior in LDB test (zebrafish (Danio rerio) [4]; 10 mg/kg i.p.): did not affect the behavioral parameters
behavioral parameters in Open Field test (BALB/C mice [5]; 1 mg/kg i.p.): did not cause any changes of the behavioral parameters
behavior in EPM (BALB/C mice [6]): did not cause any changes of the behavioral parameters

CNC1(c2ccccc2Cl)CCCCC1=O (stereo not drawn) [ketamine, reference compound]
overall behavioral effect in Danio rerio (zebrafish (Danio rerio) [1]; 20 mg/kg i.p.): anxiolytic-like responses
distance travelled (zebrafish (Danio rerio) [2]; 20 mg/kg i.p.): tendency towards increased distance travelled
latency to the top of the NT (zebrafish (Danio rerio) [2]; 20 mg/kg i.p.): did not alter
time spent at the top of the tank (zebrafish (Danio rerio) [2]; 20 mg/kg i.p.): significant increase
time spent in the middle+top of the aquarium (zebrafish (Danio rerio) [2]; 20 mg/kg i.p.): significant increase
velocity (zebrafish (Danio rerio) [2]; 20 mg/kg i.p.): increased velocity
behavior in LDB test (zebrafish (Danio rerio) [4]; 20 mg/kg i.p.): only trends towards significant differences

COCCCC/C(=N\OCCN)c1ccc(C(F)(F)F)cc1 [FA, Fluvoxamine]
time of active swimming (BALB/C mice [3]; 20 mg/kg i.p.): 103.5 ± 15.1 s
time spent immobile (BALB/C mice [3]; 20 mg/kg i.p.): 229 ± 19.8 s
